Results: ChEMBL document CHEMBL1201862, “PubChem BioAssay data set” (2004)
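Following 48 hours of exposure in 96-well plates, responses at five concentrations were used to interpolate endpoints linearly. The concentration for 50% growth inhibition is given as GI50.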 The source made the active and inactive calls. No stated cut-off is given here; in the data, active = GI50 up to about 1.1 µM and inactive = higher.

Tests used:
Assay in all cases: NCI-60 cell line screen, 48 h
A549 = tested on: A549
HCC 2998 = tested on: HCC 2998
IGROV-1 = tested on: IGROV-1
KM-20L2 = tested on: KM-20L2
LOX IMVI = tested on: LOX IMVI
M19-MEL = tested on: M19-MEL
Malme-3M = tested on: Malme-3M
OVCAR-8 = tested on: OVCAR-8
RPMI-8226 = tested on: RPMI-8226
SF-295 = tested on: SF-295
SK-MEL-28 = tested on: SK-MEL-28
SK-MEL-2 = tested on: SK-MEL-2
SNB-19 = tested on: SNB-19
SW-620 = tested on: SW-620
U-251 = tested on: U-251
SR = tested on: SR

Row | Compound | GI50 (A549) | GI50 (HCC 2998) | GI50 (IGROV-1) | GI50 (KM-20L2) | GI50 (LOX IMVI) | GI50 (M19-MEL) | GI50 (Malme-3M) | GI50 (OVCAR-8) | GI50 (RPMI-8226) | GI50 (SF-295) | GI50 (SK-MEL-28) | GI50 (SK-MEL-2) | GI50 (SNB-19) | GI50 (SW-620) | GI50 (U-251) | GI50 (SR)
1 | CCOc1ccc(NCC2CC/C(=C\c3ccccc3OC)C2=O)cc1 (stereo not drawn) | 17.9 µM (inactive) | 12.8 µM (inactive) | 10.6 µM (inactive) | 14 µM (inactive) | 6.61 µM (inactive) | 8.95 µM (inactive) | 14.4 µM (inactive) | 5.18 µM (inactive) | 0.92 µM (active) | 18 µM (inactive) | 11 µM (inactive) | 20.3 µM (inactive) | 15.9 µM (inactive) | 4.23 µM (inactive) | 14.3 µM (inactive) | 
2 | [O-][S+]1c2ccccc2N=C(c2cccc3ccccc23)CC1c1cccc2ccccc12 (stereo not drawn) | 18.8 µM (inactive) | 17.2 µM (inactive) | 15.1 µM (inactive) | 36.3 µM (inactive) | 13.6 µM (inactive) | 2.01 µM (inactive) | 22.9 µM (inactive) | 18.9 µM (inactive) | 19.8 µM (inactive) | 32.1 µM (inactive) | 0.91 µM (active) | 17.5 µM (inactive) | 21 µM (inactive) | 17.7 µM (inactive) | 18.6 µM (inactive) | 24.1 µM (inactive)
3 | COc1ccc2cc1Oc1ccc(cc1)CC1c3cc4c(cc3CCN1C)Oc1c(OC)cc3c(c1O4)C(C2)N(C)CC3 (stereo not drawn) | 4.71 µM (inactive) | 3.05 µM (inactive) | > 10 µM (inactive) | 2.55 µM (inactive) | 1.46 µM (inactive) | 4.01 µM (inactive) |  | 2.12 µM (inactive) |  | 1.98 µM (inactive) | 1.49 µM (inactive) | 2.8 µM (inactive) | 3.86 µM (inactive) | 1.69 µM (inactive) | 2.26 µM (inactive) | 1.53 µM (inactive)
4 | C/C=C/C=C/[C@H]1Cc2cc(O)cc(O)c2O1 | 70 µM (inactive) |  | > 100 µM (inactive) | 62.4 µM (inactive) | 47.9 µM (inactive) | 39.6 µM (inactive) | 52.5 µM (inactive) | 60.4 µM (inactive) |  | 57.3 µM (inactive) | > 100 µM (inactive) | > 100 µM (inactive) | 80.7 µM (inactive) | 58.6 µM (inactive) | 59.2 µM (inactive) | 78.5 µM (inactive)
5 | C1CN2CCO[SiH](O1)OCC2 | > 100 µM (inactive) | > 100 µM (inactive) | > 100 µM (inactive) | > 100 µM (inactive) |  | > 100 µM (inactive) | > 100 µM (inactive) | > 100 µM (inactive) | > 100 µM (inactive) | > 100 µM (inactive) | > 100 µM (inactive) | > 100 µM (inactive) | > 100 µM (inactive) | > 100 µM (inactive) | > 100 µM (inactive) | > 100 µM (inactive)
6 | O=C(O)c1ccccc1[Se][Se]c1ccccc1C(=O)O | 51.1 µM (inactive) | 89.7 µM (inactive) | 51.6 µM (inactive) | 25.8 µM (inactive) | 24.1 µM (inactive) | 41.4 µM (inactive) | 47.2 µM (inactive) | 43.5 µM (inactive) | 66.2 µM (inactive) | 28.4 µM (inactive) | 38.1 µM (inactive) | 44.4 µM (inactive) | 11.2 µM (inactive) | > 100 µM (inactive) | 40.8 µM (inactive) | 
7 | O=C1c2ccccc2C(=O)c2c(NCCNCCO)ccc(O)c21 | 2.45 µM (inactive) | 4.66 µM (inactive) | 2.97 µM (inactive) | 2.94 µM (inactive) | 1.51 µM (inactive) | 2.82 µM (inactive) | 3.18 µM (inactive) | 2.39 µM (inactive) | 3.22 µM (inactive) | 4.35 µM (inactive) | 2.88 µM (inactive) | 3.54 µM (inactive) | 2.89 µM (inactive) | 2.26 µM (inactive) | 3.48 µM (inactive) | 
8 | O=C1N=C(Nc2ccccc2Cl)SC1C(=O)Nc1ccc([N+](=O)[O-])cc1[N+](=O)[O-] (stereo not drawn) | > 100 µM (inactive) | > 100 µM (inactive) | > 100 µM (inactive) | > 100 µM (inactive) |  | > 100 µM (inactive) | > 100 µM (inactive) | > 100 µM (inactive) | > 100 µM (inactive) | > 100 µM (inactive) | > 100 µM (inactive) | > 100 µM (inactive) | > 100 µM (inactive) | > 100 µM (inactive) | > 100 µM (inactive) | > 100 µM (inactive)
9 | COC(=O)[C@@]1(C)C(=O)CC[C@@H]1C=O | > 100 µM (inactive) |  | > 100 µM (inactive) | > 100 µM (inactive) | > 100 µM (inactive) | > 100 µM (inactive) | > 100 µM (inactive) | > 100 µM (inactive) | > 100 µM (inactive) | > 100 µM (inactive) |  | > 100 µM (inactive) | > 100 µM (inactive) | > 100 µM (inactive) | > 100 µM (inactive) | 82.2 µM (inactive)
10 | O=c1[nH]c(=O)n(C2CC(O)C(CO)O2)cc1C#Cc1cc(F)cc(F)c1 (stereo not drawn) | > 100 µM (inactive) | > 100 µM (inactive) | > 100 µM (inactive) | > 10 µM (inactive) | > 100 µM (inactive) | > 100 µM (inactive) | > 100 µM (inactive) | > 100 µM (inactive) | > 100 µM (inactive) | > 100 µM (inactive) | > 100 µM (inactive) | > 100 µM (inactive) | > 100 µM (inactive) | > 100 µM (inactive) | > 100 µM (inactive) | 
11 | CCCCCC(/C=C/[C@@H]1[C@H]2CC(=O)O[C@H]2C[C@H]1N1CCOCC1)OC1CCCO1 (stereo partly drawn) | > 100 µM (inactive) | > 100 µM (inactive) | > 100 µM (inactive) | > 100 µM (inactive) | > 100 µM (inactive) | > 100 µM (inactive) | > 100 µM (inactive) | > 100 µM (inactive) | > 100 µM (inactive) | > 100 µM (inactive) | > 100 µM (inactive) | > 100 µM (inactive) | > 100 µM (inactive) | > 100 µM (inactive) | > 100 µM (inactive) | 
12 | COc1ccc2[nH]c3c(c2c1)[C@H](C)C[C@@H]1C(=O)N(c2ccccc2)C(=O)[C@H]31 | 27.4 µM (inactive) | 39.4 µM (inactive) | 31.8 µM (inactive) | 62.8 µM (inactive) | 25.2 µM (inactive) | 36.7 µM (inactive) | 26.6 µM (inactive) | 17.8 µM (inactive) |  | 26 µM (inactive) | > 100 µM (inactive) | 42.7 µM (inactive) | 29.4 µM (inactive) | 32.4 µM (inactive) | 15.5 µM (inactive) | 26.2 µM (inactive)
13 | [O-][S+]1Cc2ccccc2CS1 (stereo not drawn) | 93.8 µM (inactive) | 29.7 µM (inactive) | 68.2 µM (inactive) | 25.3 µM (inactive) | 7.46 µM (inactive) | 17 µM (inactive) | 13.6 µM (inactive) | 15 µM (inactive) | 13.9 µM (inactive) | 31.6 µM (inactive) | 14.9 µM (inactive) |  | > 100 µM (inactive) | 13.9 µM (inactive) | 10.7 µM (inactive) | 20 µM (inactive)
